What all share (assay): growth of human tumour cells (NCI), 48 h
Assay [1] has as its system SK-MEL-5.
Assay [2] concerns SF-295.
The test system of assay [3] is PC-3.
The subject of assay [4] is K562.
For assay [5], the system named is MCF7.
The subject of assay [6] is MOLT-4.
The subject of assay [7] is SN12C.
Assay [8] relates to 786-0.
Assay [9] concerns NCI-H23.
Assay [10] has as its system HOP-62.
Assay [11] deals with HCT-15.
Assay [12] has as its system Malme-3M.
Assay [13] deals with BT-549.
Assay [14] concerns EKVX.
For assay [15], the system named is SF-539.
The subject of assay [16] is COLO 205.
Assay [17] relates to ACHN.
The subject of assay [18] is SNB-75.

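All cell lines were grown in 96-well plates and treated with compound for 48 hours. GI50: concentration for 50% inhibition of growth.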 Activity calls are given as the source filed them. No stated cut-off is given here; in the data, active = GI50 up to about 1.1 µM and inactive = higher.

Consider `COC(=O)c1ccc2cc(O)ccc2c1`, for which the GI50 was 56.4 µM (inactive) in [1]; 53.5 µM (inactive) in assay [2]; > 100 µM (inactive) in [3]; 41.5 µM (inactive) in assay [4]; 55 µM (inactive) in assay [5]; 25.2 µM (inactive) in assay [6]. The GI50 is > 100 µM (inactive) in [7]; 89.9 µM (inactive) in assay [8]; 72.3 µM (inactive) in assay [9]; > 100 µM (inactive) in assay [10]; over 100 µM in assay [11]; > 100 µM (inactive) in assay [12]. Besides, the GI50 is 79.6 µM (inactive) in assay [13]; 55.8 µM (inactive) in assay [14]; 89.3 µM (inactive) in assay [15]; > 100 µM (inactive) in [16]; 76.6 µM (inactive) in assay [17].
Consider `CO[C@](C(=O)OC[C@H]1[C@@H](COC(C)=O)[C@@H]2O[C@H]1c1cc3c(cc12)OCO3)(c1ccccc1)C(F)(F)F`, for which the GI50 in [1] is 32.9 µM (inactive); in [18] it was 20.4 µM (inactive); in [2], 18 µM (inactive); in assay [3], 19.4 µM (inactive); in assay [6], 19.4 µM (inactive); in assay [7], 25.1 µM (inactive). Moreover, the GI50 in assay [9] is 19.1 µM (inactive); in assay [10] it was 26.2 µM (inactive); in assay [11], 7.46 µM; in assay [12], > 100 µM (inactive); in assay [13], 22.9 µM (inactive); in assay [14], 27 µM (inactive). Moreover, in [16], the GI50 was 28.6 µM (inactive).
For the compound `Cc1nc2ccc(Cl)cc2c2c1CCN2c1ccc(F)cc1`, the GI50 in assay [1] is 7.87 µM (inactive); in [18] it was 0.0266 µM (active); in assay [2] it was 82.8 µM (inactive); in [3] it was 11 µM (inactive); in [4] it was 5.35 µM (inactive); in assay [5], 12.2 µM (inactive). Moreover, the GI50 in assay [6] is 4.72 µM (inactive); in assay [7], 26.5 µM (inactive); in assay [8], 11.8 µM (inactive); in [9], 20.2 µM (inactive); in assay [10], 18.9 µM (inactive); in [11], 36 µM. The GI50 in assay [12] was 24.8 µM (inactive); in assay [14], 45.2 µM (inactive); in assay [15], 22.3 µM (inactive); in [16] it was 9.95 µM (inactive); in assay [17], 17.7 µM (inactive).
With `COc1cc(CN(C)N2C(=O)c3cccc4cc([N+](=O)[O-])cc(c34)C2=O)cc(OC)c1OC`, the GI50 is > 100 µM (inactive) in assay [1]; 25.2 µM (inactive) in assay [18]; 54.6 µM (inactive) in assay [2]; > 100 µM (inactive) in assay [3]; > 100 µM (inactive) in [4]; > 100 µM (inactive) in assay [5]. For the same compound, the GI50 was 27.6 µM (inactive) in assay [6]; > 100 µM (inactive) in [7]; > 100 µM (inactive) in assay [9]; 16.7 µM (inactive) in [10]; over 100 µM in [11]; > 100 µM (inactive) in [12]. Moreover, the GI50 in [13] and in assay [16] was > 100 µM (inactive) in each case.
As for `COc1ccc(C(=C(I)c2ccccc2)c2ccc(OC)cc2)cc1`, the GI50 in assay [1] is 49.8 µM (inactive); in [2], > 100 µM (inactive); in assay [3], > 100 µM (inactive); in assay [4], > 100 µM (inactive); in [5], 21.6 µM (inactive); in assay [6] it was > 100 µM (inactive). Further, the GI50 in [7] is > 100 µM (inactive); in [8], > 100 µM (inactive); in [9] it was > 100 µM (inactive); in [10] it was > 100 µM (inactive); in [11], 65.6 µM; in [12] it was > 100 µM (inactive). The GI50 in [13], in assay [14], in [15], in [16] and in assay [17] was > 100 µM (inactive) each time.
Consider `COC(=O)[C@@H]1CO[C@H](C(C)(C)C)N1C(=O)N1C=CC(=O)C[C@H]1C`, for which the GI50 in assay [1], in assay [18], in [2], in [3], in assay [4] and in assay [5] was > 100 µM (inactive) each time. Further, the GI50 in assay [6] is > 10 µM (inactive); in [7] it was > 100 µM (inactive); in assay [8] it was > 100 µM (inactive); in [9], > 100 µM (inactive); in [10] it was > 100 µM (inactive); in [12], > 100 µM (inactive). Also, the GI50 in assay [13], in assay [14], in [16] and in [17] was > 100 µM (inactive) in each case.
Take `CC(C)[Si](CC1=CCCCC12C(=O)N(COCC[Si](C)(C)C)c1ccccc12)(C(C)C)C(C)C` (stereo unspecified): the GI50 in [1] was 43.7 µM (inactive); in [18] it was > 100 µM (inactive); in [2], 31.1 µM (inactive); in [3], > 100 µM (inactive); in [4] it was > 100 µM (inactive); in assay [5], 61 µM (inactive). Further, the GI50 in assay [6] is > 100 µM (inactive); in assay [8], > 100 µM (inactive); in assay [9], 66.8 µM (inactive); in assay [10], > 100 µM (inactive); in assay [11] it was over 100 µM; in [12], > 100 µM (inactive). In addition, the GI50 in [14] was 63.8 µM (inactive); in assay [15], 73.1 µM (inactive); in [16], > 100 µM (inactive); in assay [17], > 100 µM (inactive).
As to `CC(NC(=O)N(C)C)NC(=O)N(C)C`, the GI50 in assay [1], in assay [18], in assay [2], in [3], in assay [4] and in [5] was > 10 µM (inactive) throughout. Further, the GI50 in assay [6] is > 10 µM (inactive); in [7], > 10 µM (inactive); in [8], > 10 µM (inactive); in assay [9], > 10 µM (inactive); in [10], > 10 µM (inactive); in assay [11], over 10 µM. Moreover, the GI50 in assay [12], in assay [14], in assay [15], in assay [16] and in assay [17] was > 10 µM (inactive) in each case.
As for `CCN(C(=O)N[C@@H](Cc1ccccc1)C(=O)N[C@@H](CC(C)C)C(=O)OC)c1ccccc1`, the GI50 in assay [2] is 26.5 µM (inactive); in [3], 35.1 µM (inactive); in assay [4] it was 31.3 µM (inactive); in [5], 24 µM (inactive); in assay [6] it was 15.8 µM (inactive); in assay [7], 16 µM (inactive). For the same compound, the GI50 was 19.8 µM (inactive) in [8]; 24 µM (inactive) in [9]; 34.4 µM (inactive) in assay [10]; 15.8 µM in [11]; 57.1 µM (inactive) in assay [13]; 18.7 µM (inactive) in [14]. Also, the GI50 in assay [15] is 19.5 µM (inactive); in assay [16], 18 µM (inactive); in [17], 21.3 µM (inactive).
In the case of `CC[C@]1(Cc2ccc(OC)c(OC)c2)C2CC(C(=O)OC)ON2O[C@H](OCc2ccccc2)[C@@H]1OC(C)=O` (stereo partly specified), the GI50 in assay [1], in assay [18], in [2], in assay [3], in assay [4] and in [5] was > 100 µM (inactive) each time. The GI50 in [6] was > 100 µM (inactive); in [7], > 100 µM (inactive); in [8], > 100 µM (inactive); in assay [9] it was > 100 µM (inactive); in assay [10], > 100 µM (inactive); in assay [11], over 100 µM. The GI50 in assay [12], in [13], in assay [14], in [16] and in [17] was > 100 µM (inactive) throughout.
For `Oc1cc(N2CCCC2)ccc1/C=N/N1C(=S)N(c2ccccc2)C(=N\c2ccccc2)/C1=N/c1ccccc1`, the GI50 in [1] is 73.3 µM (inactive); in assay [2], 94.4 µM (inactive); in assay [3], > 100 µM (inactive); in assay [4] it was > 100 µM (inactive); in assay [5], 70.1 µM (inactive); in assay [6], > 100 µM (inactive). Also, the GI50 in assay [7] was > 100 µM (inactive); in assay [8] it was > 100 µM (inactive); in assay [9], 87.7 µM (inactive); in assay [10], 35.2 µM (inactive); in assay [11], over 100 µM; in assay [12], > 100 µM (inactive). In addition, the GI50 in assay [13], in assay [14], in [15], in assay [16] and in [17] was > 100 µM (inactive) in each case.
Consider `CS(=O)(=O)c1ccc2nc(-c3ccc(O)cc3)sc2c1`, for which the GI50 in assay [1] was 17.4 µM (inactive); in [2] it was 16.7 µM (inactive); in assay [3] it was 17.5 µM (inactive); in assay [4] it was 33.8 µM (inactive); in assay [5] it was 17.5 µM (inactive); in assay [6], 35.6 µM (inactive). The GI50 in [7] was 17.5 µM (inactive); in assay [9] it was 19 µM (inactive); in [11], 16.9 µM; in [12] it was 16.7 µM (inactive); in [13] it was 16.4 µM (inactive); in [14], 10.5 µM (inactive). The GI50 in [15] is 11 µM (inactive); in [16], 22.2 µM (inactive); in assay [17], 17.9 µM (inactive).

For the origin of these results see ChEMBL document CHEMBL1201862, “PubChem BioAssay data set” (2004).
